Results published in patent US20240158446A1, “CYCLIC COMPOUND HAVING SELECTIVE INHIBITORY ACTION ON KRAS OVER HRAS AND NRAS” (CHUGAI SEIYAKU KABUSHIKI KAISHA, priority 2021, published 2024).

Assays:
[1] = target: GDP-bound HRAS wild-type protein (Homo sapiens, UniProt P01112); assay: Binding to HRAS by surface plasmon resonance (SPR), Single Cycle Kinetics; conditions: SPR KD ratio HRAS/KRAS, class symbols
[2] = target: GDP-bound NRAS wild-type protein (Homo sapiens, UniProt P01111); assay: Binding to NRAS by surface plasmon resonance (SPR), Single Cycle Kinetics; conditions: SPR KD ratio NRAS/KRAS, class symbols
GDP-bound NRAS wild-type protein, sequence (P01111 whole entry): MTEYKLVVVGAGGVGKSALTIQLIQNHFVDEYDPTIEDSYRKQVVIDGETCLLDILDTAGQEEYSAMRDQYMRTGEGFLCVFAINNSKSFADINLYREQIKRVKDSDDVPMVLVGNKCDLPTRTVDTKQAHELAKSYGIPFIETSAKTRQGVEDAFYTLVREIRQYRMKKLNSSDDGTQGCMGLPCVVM

[3] = system: human lung cancer strain NCI-H441;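 further: cell proliferation inhibition after four days measured by CellTiter-Glo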
[4] = target: GDP-bound KRAS wild-type protein (Homo sapiens, UniProt P01116); assay: Binding to KRAS by surface plasmon resonance (SPR), Single Cycle Kinetics; conditions: SPR Single Cycle Kinetics, GDP-bound KRAS wild-type protein, 1:1 binding model; read-out: KRAS KD
GDP-bound KRAS wild-type protein, sequence (P01116 whole entry): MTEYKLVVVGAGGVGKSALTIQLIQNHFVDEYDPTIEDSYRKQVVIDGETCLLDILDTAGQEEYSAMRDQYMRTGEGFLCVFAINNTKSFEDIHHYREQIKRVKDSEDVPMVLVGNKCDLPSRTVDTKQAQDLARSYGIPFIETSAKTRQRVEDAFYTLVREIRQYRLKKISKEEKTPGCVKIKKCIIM

GDP-bound HRAS wild-type protein, sequence (P01112 whole entry): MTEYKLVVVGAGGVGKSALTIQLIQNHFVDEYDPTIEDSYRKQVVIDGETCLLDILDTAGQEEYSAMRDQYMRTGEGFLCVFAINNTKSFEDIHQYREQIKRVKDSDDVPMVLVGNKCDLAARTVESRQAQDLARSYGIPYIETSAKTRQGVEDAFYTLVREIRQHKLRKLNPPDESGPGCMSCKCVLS

Row | SMILES | HRAS/KRAS (ratio of KD value with respect to GDP-bound HRAS wild-type protein to KD value with respect to KRAS) [1] | NRAS/KRAS (ratio of KD value with respect to GDP-bound NRAS wild-type protein to KD value with respect to KRAS) [2] | IC50 [3] [nM] | Kd [4] [nM]
1 | CCO[C@@H]1C[C@H]2C(=O)NC3(CC(C)(C)C3)C(=O)N(C)[C@@H](C(CC)CC)C(=O)N(C)[C@H](C(=O)N3CCCCC3)CC(=O)N(C)[C@@H](COC)C(=O)N[C@@H]([C@@H](C)CC)C(=O)N(C)CC(=O)N(C)[C@H]3C/C=C\CCN(C3=O)[C@@H](Cc3ccc(C(F)(F)F)cc3)C(=O)N(C)CC(=O)N[C@@H](CCc3cc(F)c(C(F)(F)F)c(F)c3)C(=O)N2C1 [PP2606] | AA (a compound having 20 or more is denoted as AA) | AA (a compound having 20 or more is denoted as AA) | 68.7 | 0.81
2 | CCC(CC)[C@H]1C(=O)N(C)[C@H](C(=O)N2CCCCC2)CC(=O)N(C)[C@@H](COC)C(=O)N[C@@H]([C@@H](C)CC)C(=O)N(C)CC(=O)N(C)[C@H]2C/C=C\CCN(C2=O)[C@@H](Cc2ccc(C(F)(F)F)cc2)C(=O)N(C)CC(=O)N[C@@H](CCc2cc(F)c(C(F)(F)F)c(F)c2)C(=O)N2C[C@H](OC(C)C)C[C@H]2C(=O)NC2(CC(C)(C)C2)C(=O)N1C [PP2608] | A (a compound having 10 or more and less than 20 is denoted as A) | AA (a compound having 20 or more is denoted as AA) | 53 | 1.4
3 | CCO[C@@H]1C[C@H]2C(=O)NC3(CC(C)(C)C3)C(=O)N(C)[C@@H](C(CC)CC)C(=O)N(C)[C@H](C(=O)N3CCCCC3)CC(=O)N(C)[C@@H](COC)C(=O)N[C@@H]([C@@H](C)CC)C(=O)N(C)CC(=O)N(C)[C@H]3C/C=C\CCN(C3=O)[C@@H](Cc3ccc(C(F)(F)F)cc3)C(=O)N(C)CC(=O)N[C@@H](CCc3ccc(Cl)c(Cl)c3)C(=O)N2C1 [PP2610] | A (a compound having 10 or more and less than 20 is denoted as A) | AA (a compound having 20 or more is denoted as AA) | 126 | 1.3
4 | CCC(CC)[C@H]1C(=O)N(C)[C@H](C(=O)N2CCCCC2)CC(=O)N(C)[C@@H](COC)C(=O)N[C@@H]([C@@H](C)CC)C(=O)N(C)CC(=O)N(C)[C@H]2C/C=C\CCN(C2=O)[C@@H](Cc2ccc(C(F)(F)F)cc2)C(=O)N(C)CC(=O)N[C@@H](CCc2ccc(Cl)c(Cl)c2)C(=O)N2C[C@H](OC(C)C)C[C@H]2C(=O)NC2(CC(C)(C)C2)C(=O)N1C [PP2612] | A (a compound having 10 or more and less than 20 is denoted as A) | AA (a compound having 20 or more is denoted as AA) | 199 | 2.4
5 | CCC[C@H]1C(=O)N[C@@H]([C@@H](C)CC)C(=O)N(C2CC2)CC(=O)N(C)[C@H]2C/C=C\CCN(C2=O)[C@@H](Cc2ccc(C)cc2)C(=O)N(C)CC(=O)N[C@@H](CCc2cc(F)c(C(F)(F)F)c(F)c2)C(=O)N2C[C@H](OC3CCC3)C[C@H]2C(=O)NC2(CC(C)(C)C2)C(=O)N(C)[C@@H](C2CCCC2)C(=O)N(C)[C@H](C(=O)N(C)C)CC(=O)N1C [PP2614] | A (a compound having 10 or more and less than 20 is denoted as A) | A (a compound having 10 or more and less than 20 is denoted as A) | 12.1 | 0.27
6 | CCC(CC)[C@H]1C(=O)N(C)[C@H](C(=O)N(C)C)CC(=O)N(C)[C@@H](COC)C(=O)N[C@@H]([C@@H](C)CC)C(=O)N(C2CC2)CC(=O)N(C)[C@H]2C/C=C\CCN(C2=O)[C@@H](CC2CCC(F)(F)CC2)C(=O)N(C)CC(=O)N[C@@H](CCc2cc(F)c(C(F)(F)F)c(F)c2)C(=O)N2C[C@H](OC3CCC3)C[C@H]2C(=O)NC2(CC(C)(C)C2)C(=O)N1C [PP2615] | A (a compound having 10 or more and less than 20 is denoted as A) | A (a compound having 10 or more and less than 20 is denoted as A) | 88.7 | 2
7 | CCC[C@H]1C(=O)N[C@@H]([C@@H](C)CC)C(=O)N(C2CC2)CC(=O)N(C)[C@H]2C/C=C\CCN(C2=O)[C@@H](Cc2ccc(C)cc2)C(=O)N(C)CC(=O)N[C@@H](CCc2ccc(Cl)c(Cl)c2)C(=O)N2C[C@H](OC3CCC3)C[C@H]2C(=O)NC2(CC(C)(C)C2)C(=O)N(C)[C@@H](C2CCCC2)C(=O)N(C)[C@H](C(=O)N(C)C)CC(=O)N1C [PP2616] | A (a compound having 10 or more and less than 20 is denoted as A) | A (a compound having 10 or more and less than 20 is denoted as A) | 66.4 | 0.8
8 | CC[C@H](C)[C@@H]1NC(=O)[C@H](COC)N(C)C(=O)C[C@@H](C(=O)N(C)C)N(C)C(=O)[C@H](C2CCCC2)N(C)C(=O)C2(CC(C)(C)C2)NC(=O)[C@@H]2C[C@@H](OC3CCC3)CN2C(=O)[C@H](CCc2cc(F)c(C(F)(F)F)c(F)c2)NC(=O)CN(C)C(=O)[C@H](CC2CCCCC2)N2CC/C=C\C[C@@H](C2=O)N(C)C(=O)CN(C2CC2)C1=O [PP2618] | A (a compound having 10 or more and less than 20 is denoted as A) | A (a compound having 10 or more and less than 20 is denoted as A) | 69.5 | 1.4
9 | CCC(CC)[C@H]1C(=O)N(C)[C@H](C(=O)N(C)C)CC(=O)N(C)[C@@H](COC)C(=O)N[C@@H]([C@@H](C)CC)C(=O)N(C2CC2)CC(=O)N(C)[C@H]2C/C=C\CCN(C2=O)[C@@H](Cc2ccc(C)cc2)C(=O)N(C)CC(=O)N[C@@H](CCc2cc(F)c(C(F)(F)F)c(F)c2)C(=O)N2C[C@H](OC3CCCC3)C[C@H]2C(=O)NC2(CC(C)(C)C2)C(=O)N1C [PP2619] | A (a compound having 10 or more and less than 20 is denoted as A) | AA (a compound having 20 or more is denoted as AA) | 132 | 1.2
10 | CC[C@H](C)[C@@H]1NC(=O)[C@H](COC)N(C)C(=O)C[C@@H](C(=O)N(C)C)N(C)C(=O)[C@H](C2CCCC2)N(C)C(=O)C2(CC(C)(C)C2)NC(=O)[C@@H]2C[C@@H](OC3CCC3)CN2C(=O)[C@H](CCc2cc(F)c(C(F)(F)F)c(F)c2)NC(=O)CN(C)C(=O)[C@H](CC2CCC(F)(F)CC2)N2CC/C=C\C[C@@H](C2=O)N(C)C(=O)CN(C2CC2)C1=O [PP2622] | B (a compound having 3 or more and less than 10 is denoted as B) | A (a compound having 10 or more and less than 20 is denoted as A) | 43.8 | 0.53
11 | CC[C@H](C)[C@@H]1NC(=O)[C@H](COC)N(C)C(=O)C[C@@H](C(=O)N(C)C)N(C)C(=O)[C@H](C2CCCC2)N(C)C(=O)C2(CC(C)(C)C2)NC(=O)[C@@H]2C[C@@H](OC3CCC3)CN2C(=O)[C@H](CCc2ccc(Cl)c(Cl)c2)NC(=O)CN(C)C(=O)[C@H](CC2CCC(F)(F)CC2)N2CC/C=C\C[C@@H](C2=O)N(C)C(=O)CN(C2CC2)C1=O [PP2624] | A (a compound having 10 or more and less than 20 is denoted as A) | A (a compound having 10 or more and less than 20 is denoted as A) | 174 | 1.3
12 | CCC(CC)[C@H]1C(=O)N(C)[C@H](C(=O)N(C)C)CC(=O)N(C)[C@@H](COC)C(=O)N[C@@H]([C@@H](C)CC)C(=O)N(C2CC2)CC(=O)N(C)[C@H]2C/C=C\CCN(C2=O)[C@@H](CC2CCC(F)(F)CC2)C(=O)N(C)CC(=O)N[C@@H](CCc2cc(F)c(C(F)(F)F)c(F)c2)C(=O)N2C[C@H](OC3CCCC3)C[C@H]2C(=O)NC2(CC(C)(C)C2)C(=O)N1C [PP2627] | A (a compound having 10 or more and less than 20 is denoted as A) | A (a compound having 10 or more and less than 20 is denoted as A) | 95.2 | 2.6
13 | CC[C@H](C)[C@@H]1NC(=O)[C@H](COC)N(C)C(=O)C[C@@H](C(=O)N(C)C)N(C)C(=O)[C@H](C2CCCC2)N(C)C(=O)C2(CC(C)(C)C2)NC(=O)[C@@H]2C[C@@H](OC3CCCC3)CN2C(=O)[C@H](CCc2ccc(Cl)c(Cl)c2)NC(=O)CN(C)C(=O)[C@H](Cc2ccc(C)cc2)N2CC/C=C\C[C@@H](C2=O)N(C)C(=O)CN(C2CC2)C1=O [PP2628] | A (a compound having 10 or more and less than 20 is denoted as A) | A (a compound having 10 or more and less than 20 is denoted as A) | 67.9 | 0.9
14 | CC[C@H](C)[C@@H]1NC(=O)[C@H](COC)N(C)C(=O)C[C@@H](C(=O)N(C)C)N(C)C(=O)[C@H](C2CCCC2)N(C)C(=O)C2(CC(C)(C)C2)NC(=O)[C@@H]2C[C@@H](OC3CCCC3)CN2C(=O)[C@H](CCc2cc(F)c(C(F)(F)F)c(F)c2)NC(=O)CN(C)C(=O)[C@H](CC2CCCCC2)N2CC/C=C\C[C@@H](C2=O)N(C)C(=O)CN(C2CC2)C1=O [PP2630] | B (a compound having 3 or more and less than 10 is denoted as B) | A (a compound having 10 or more and less than 20 is denoted as A) | 190 | 3
